The text below walks through data of patent publication EP1206482B1, “METHOD FOR COUPLING, IN SOLUTION, A PEPTIDE WITH AT LEAST ANOTHER COMPOUND AND USES THEREOF” (INSTITUT PASTEUR DE LILLE, priority 1999, dated 2001).

The test system of this data set is molécules de classe II du CMH. As to the kind of experiment: Quantification of surface expression of MHC class II molecules by flow cytometry (anti-HLA DR-FITC) after 24 h stimulation of cells with peptides or lipopeptides. Type of data set: cell-based, humaine. The conditions noted are these: for Moyenne: mean fluorescence of treated COLO 205 cells; for Rapport: ratio of mean fluorescence of treated to untreated COLO 205 cells. As for the experimental part: Les cellules COLO 205 (lignée cellulaire humaine issue d'un carcinome de colon) proviennent de la banque de cellules ATCC (American Type Culture Collection). Elles sont cultivées en milieu RPMI 1640 (Gibco BRL, Courbevoie, France) avec 10% de sérum de veau foetal (SVF) et 5 mM de pyruvate de sodium, et incubées à 37°C en présence de 5% de CO2. Les cellules sont stimulées pendant 24 heures avec différentes concentrations (35, 50 ou 65 µM) de peptides ou de lipopeptides. Les cellules sont ensuite marquées pendant 1 heure à 4°C avec 10 µl d'anticorps de souris anti-HLA DR de classe-II, couplé à la FITC (clone TAL, 1B5, Cymbus Biotechnology Ltd, Hants, Grande-Bretagne) dans 10% de SVF/PBS, puis lavées 3 fois par du SVF/PBS.
L'expression de surface des molécules de classe II du CMH est analysée par cytométrie de flux sur un cytomètre Coulter EPICS II, à raison de 10 000 évènements par échantillon. L'intensité de fluorescence observée est directement proportionnelle à la quantité de molécules de classe II du CMH présente à la surface des cellules. La moyenne de fluorescence observée pour les cellules non traitées et pour les cellules traitées (colonne « Moyenne» dans le tableau II) permet de calculer un rapport entre la moyenne de fluorescence des cellules traitées et la moyenne de fluorescence des cellules non traitées (colonne « Rapport » dans le tableau II).
A general note: In flow cytometry, cells or beads pass a laser one at a time.

Starred links: 1 amine or outer side, 2 acyl side, 3 side chain; linkers in the order of their positions; H or OH if unused. Non-standard residues stand in square brackets, D forms with d. No end group written: not given here. Hydrazinoacetyl = O=C(CNN[*:1])[*:2]

Take “H2N-NH-CH2CO-PSRENQNAVKIQKLSVVLRREQKHRVERLAFRNQSLPF-NH2 ([Hydrazinoacetyl]PSRENQNAVKIQKLSVVLRREQKHRVERLAFRNQSLPF-NH2; N-terminus assumed; SMILES CC[C@H](C)[C@H](NC(=O)[C@H](CCCCN)NC(=O)[C@@H](NC(=O)[C@H](C)NC(=O)[C@H](CC(N)=O)NC(=O)[C@H](CCC(N)=O)NC(=O)[C@H](CC(N)=O)NC(=O)[C@H](CCC(=O)O)NC(=O)[C@H](CCCNC(=N)N)NC(=O)[C@H](CO)NC(=O)[C@@H]1CCCN1C(=O)CNN)C(C)C)C(=O)N[C@@H](CCC(N)=O)C(=O)N[C@@H](CCCCN)C(=O)N[C@@H](CC(C)C)C(=O)N[C@@H](CO)C(=O)N[C@H](C(=O)N[C@H](C(=O)N[C@@H](CC(C)C)C(=O)N[C@@H](CCCNC(=N)N)C(=O)N[C@@H](CCCNC(=N)N)C(=O)N[C@@H](CCC(=O)O)C(=O)N[C@@H](CCC(N)=O)C(=O)N[C@@H](CCCCN)C(=O)N[C@@H](Cc1c[nH]cn1)C(=O)N[C@@H](CCCNC(=N)N)C(=O)N[C@H](C(=O)N[C@@H](CCC(=O)O)C(=O)N[C@@H](CCCNC(=N)N)C(=O)N[C@@H](CC(C)C)C(=O)N[C@@H](C)C(=O)N[C@@H](Cc1ccccc1)C(=O)N[C@@H](CCCNC(=N)N)C(=O)N[C@@H](CC(N)=O)C(=O)N[C@@H](CCC(N)=O)C(=O)N[C@@H](CO)C(=O)N[C@@H](CC(C)C)C(=O)N1CCC[C@H]1C(=O)N[C@@H](Cc1ccccc1)C(N)=O)C(C)C)C(C)C)C(C)C) [peptide 22Sc]”: the Moyenne was 1,36 (35 µM), 1,60 (50 µM) and 1,67 (65 µM). For the same substance, the Rapport is 1,8 (35 µM), 2,18 (50 µM) and 2,27 (65 µM).
In the case of “palm-NH-NH-CH2CO-PSRENQNAVKIQKLSVVLRREQKHR-VERLAFRNQSLPF-NH2 [peptide 23Sc]”, the Moyenne is, setting by setting: (35 µM) 4,72; (50 µM) 4,51; (65 µM) 5,55. Further, the Rapport was 9,16 (35 µM), 6,15 (50 µM) and 7,5 (65 µM).
